{"source": "patent US5214034A", "about": "“Catechol derivatives, and preventive and remedial preparations for regressive disorders in the central nervous system containing the same” (priority 1986, dated 1993)", "key": {"NGF": {"system": "NGF", "assay": "NGF production in the central nervous system of normal rats by intraperitoneal injection (NGF content of brain tissue, ELISA)", "assay_type": "in vivo, rat (Wistar male)", "method": "The derivative (A), e.g. R=Two H, R1 =H and R2 =n-propyl (hereinafter referred to as 4-n-propylcatechol), was administered to normal rats by intraperitoneal injection, and the effect was examined.\n4-n-Propylcatechol was administered by intraperitoneal injection 4 times every other day in a dosage of 5 mg/kg. The rats were killed two days after the final administration. The NGF content of each parts in brain was measured. The content was compared with those of control group which was administered saline alone.\nA variety of the derivative was administered three times every other day. The content of NGF in the forebrain after 48 hours and 7 days from the final administration was measured and illustrated in Table 7.\nWistar male rats (9-10-week old, 200-250 g of weight) were intraperitoneally injected with the test derivative in a volume of 0.5 ml as a saline solution, emulsion or suspension. Dose and administration times were the same as above. The rats were killed by a hard spinal blow two days after the final administration. Each parts of brain were dissected and subjected to the following treatment under ice cooling.\nEach parts of brain were weighed and homogenized for 30 strokes by a Dounce type homogenizer in a homogenization buffer (0.1 M Tris-HCl, containing 2% bovine serum albumin fraction V, 2% gelatin, 1.0 M NaCl, 0.02% NaN3, 2 mM EDTA and 2.6 kiu/ml of aprotinin, pH 7.6) at a concentration of 10% (W/V) (only septum 5% (W/V)). Each homogenate was centrifuged at 100,000 xg for 10 minutes, and 50 μl of supernatant was added with the same amount of a dilution buffer (0.1 M Tris-HCl containing 2% bovine serum albumin fraction V, 0.05% NaN3 and 20 mM CaCl2, pH 7.6). Determination was conducted in accordance with a method of S. Furukawa et al. by using a high sensitivity ELISA system on 8-NGF which was described in J. Neurochem., 40, 734-744 (1983). Lower limit of determination is 0.25 pg/ml. Data are indicated as a mean value ±SE on the NGF content of tissue (pg/mg wet tissue) of five rats."}, "[1]": {"system": "rats injected with kainic acid at basal forebrain", "assay": "Promotion of recovery from retention deficits by repeated learning (passive avoidance)", "assay_type": "in vivo, rat (male Sprague-Dawley)", "parameters": "key: latency in seconds to enter dark chamber, capped at 300 s", "details": "Table 9, i.p. 5 mg/kg before each trial", "method": "Effects of the derivative on the behavioral parameters of rats injected with kainic acid at basal forebrain were characterized with regard to both prevention against deficits in retention of passive avoidance learning and promotion of recovery from damaged state by repeated learning.\nMale Sprague-Dawley rats (9-10 weeks of age, 200-250 g of weight) were anesthetized with Nembutal (50 mg/kg, i.p.) and placed in a stereotaxic apparatus. Bilateral lesions of the ventral globus pallidus were made by direct stereotaxic application (0.7 mm posterior to bregma, 2.7 mm lateral to the midline, and 7.0 mm ventral to the brain surface) of 0.25 μg of kainic acid in 1 μl of PBS (pH 7.4) to prepare disordered models. Controls were sham-operated rats injected with PBS in place of kainic acid solution.\nPassive avoidance procedures were performed by using a two chambered step-through passive avoidance apparatus with a guillotine door. A 3 mA scrambled shock was delivered to the dark floor grids for 3 seconds as a punishment. Habituation trial was conducted prior to the acquisition trial. Each rats were placed in the illuminated chamber and the guillotine door was raised after 10 seconds. As soon as the rats entered into the dark chamber, the door was lowered. The rats were removed after 10 seconds and returned to their home cages. […] The acquisition trial was performed similarly to the habituation trial. In the former case, a rat was placed in the illuminated room and the door was opened after 10 seconds. The door was shut immediately after the rat entered into the dark room, a scrambled foot shock was applied, and then the animal was removed. The latency to enter the dark chamber after opening the door was recorded for 300 seconds in the retention of passive avoidance. The latency exceeding 300 seconds was calculated as 300 seconds.\nThe promoting effects on the recovery by repeated training from the damaged state of retention were acessed by using 30 rats injected with kainic acid. Rats were subjected to the acquisition trial 10 days after the operation. The rats were equally divided into 3 groups after 24 hours and injected intrapenitroneally with 5 mg/kg of 4-n-propylcatechol and the derivative (A) (R=--CO--, R=H, R2 =n-propyl) respectively as a saline solution. The remaining 10 rats were intraperitoneally injected with saline alone. The first retention trial was carried out two days after the injection. Rats which entered into the dark chamber within 30 seconds were punished by the scrambled foot shock as a training. On the next day, all animals were administered again the same amount of test derivative or saline. These animals were subjected to the second retention trial two days after the second injection.\nRetention trials, punishments and additional administrations were repeated as mentioned above four times in all."}, "[2]": {"details": "Table 6, i.p. 5 mg/kg, 4 times every other day"}, "[3]": {"details": "Table 6, i.p. 5 mg/kg, 4 times every other day, **P 0.01 vs saline"}}, "note": "“Also recorded” adds a separate entry of the source."}
{"smiles": "CCCc1ccc(O)c(O)c1", "note": "[R = Two H, R1 = H, R2 = n-Propyl, 4-n-propylcatechol]", "values": [{"measurement": "NGF production in brain regions (in words)", "setting": "NGF", "value": "marked activation of NGF production was observed in frontal cortex, hippocampus and olfactory bulb; also recorded: Significant increase in NGF level was also observed in the original region of cholinergic tracts"}, {"measurement": "NGF content, cerebellum", "setting": "NGF; [2]", "value": "0.33 ± 0.16", "unit": "pg/mg wet tissue"}, {"measurement": "NGF content, striatum", "setting": "NGF; [2]", "value": "0.24 ± 0.04", "unit": "pg/mg wet tissue"}, {"measurement": "NGF content, NBM (nucleus basalis magnecellularis)", "setting": "NGF; [3]", "value": "1.69 ± 0.17", "unit": "pg/mg wet tissue"}, {"measurement": "NGF content, olfactory bulb", "setting": "NGF; [3]", "value": "1.70 ± 0.24", "unit": "pg/mg wet tissue"}, {"measurement": "NGF content, septum", "setting": "NGF; [3]", "value": "1.39 ± 0.14", "unit": "pg/mg wet tissue"}, {"measurement": "NGF content, hippocampus", "setting": "NGF; Table 6, i.p. 5 mg/kg, 4 times every other day, *P < 0.05 vs saline", "value": "3.92 ± 0.63", "unit": "pg/mg wet tissue"}, {"measurement": "NGF content, frontal cortex", "setting": "NGF; Table 6, i.p. 5 mg/kg, 4 times every other day, two days after final administration, *P < 0.05 vs saline", "value": "2.14 ± 0.49", "unit": "pg/mg wet tissue"}, {"measurement": "NGF content after 48 hr.", "setting": "NGF; Table 7, i.p., three times every other day, 48 hours after final administration", "value": "1.97 ± 0.41 pg/mg wet tissue of frontal co"}, {"measurement": "NGF content after 7 days", "setting": "NGF; Table 7, i.p., three times every other day, 7 days after final administration", "value": "2.28 ± 0.29 pg/mg wet tissue of frontal co"}, {"measurement": "Mean latency, 1st retention trial", "setting": "[1]", "value": "47 ± 16"}, {"measurement": "Mean latency, 4th retention trial", "setting": "[1]; **P < 0.01", "value": "272 ± 14"}, {"measurement": "Mean latency, 2nd retention trial", "setting": "[1]; *P < 0.05", "value": "147 ± 29"}, {"measurement": "Mean latency, 3rd retention trial", "setting": "[1]; *P < 0.05", "value": "201 ± 23"}]}
